According to patent US20120121720A1, “Modulation of Beta 2 Adrenergic Receptors by Inhibitors of EGLN3 or pVHL” (priority 2009, published 2012):

Key:
[1] = tested on: hypertension; assay: Patient case examples: hypertension; assay type: in vivo, human; conditions: for Blood pressure: baseline 180/95 on hydralazine hydrochloride
Procedure: A person with hypertension and not responding to hydralazine hydrochloride (i.e., blood pressure 180/95). […] Patient is begun on DMOG at a dose of 30 mg/kg twice per day. Patient improves (i.e., blood pressure 160/90).
They are started on DMOG at a dose of 30 mg/kg twice per day. Patient improves. No limiting hypertension is noted.
A person with hypertension is not responding to hydralazine hydrochloride (i.e., blood pressure 180/95). […] Patient is begun on DMOG at a dose of 30 mg/kg twice per day. Patient improves (i.e., blood pressure 160/90).

[2] = tested on: heart failure; assay: Patient case examples: heart failure (ejection fraction, dyspnea); assay type: in vivo, human; conditions: for Ejection fraction response / Ejection fraction: baseline 25%; for Ejection fraction: within one month
Procedure: The patient is started on nitroglycerin patch (Nitro-bid), 2 inches, twice a day and DMOG at a dose of 100 mg/kg once per day. Ejection fraction improves to 40% within one month.
The patient is started on nitroglycerin patch (Nitro-bid), 2 inches, twice a day and DMOG at a dose of 25 mg/kg three times per day. Ejection fraction improves to 42% within one month.
The patient is started on intravenous nitroglycerin at 20 μg per minute and DMOG at a dose of 50 mg/kg three times per day. Ejection fraction improves to 42% within one month.
A person with heart failure remains short of breath despite increasing doses of nitroglycerin.

[3] = tested on: asthma; assay: Patient case examples: asthma; assay type: in vivo, human
Procedure: A person with asthma, wherein symptoms are not improving despite receiving treatment with 250 ug beclomethasone taken in combination with an inhaler containing albuterol (when needed) is begun on DMOG at a dose of 20 mg/kg three times per day. Patient's asthma improves.
A person with asthma exacerbated by treatment with budesonide and formoterol at a dose per actuation of 160 and 4.5 mcg, respectively. Patient is begun on DMOG at a dose of 100 mg/kg once per day. Patient's asthma improves. EXAMPLE HI
A person with asthma exacerbated by treatment with fluticasone and salmeterol. Patient is begun on DMOG at a dose of 30 mg/kg twice per day. Patient's asthma improves.
A person with asthma exacerbated wherein symptoms are not improving despite receiving treatment with albuterol. Patient is begun on DMOG at a dose of 25 mg/kg three times per day. Patient's asthma improves.
A person with asthma exacerbated by treatment with budesonide and formoterol at a dose per actuation of 150.0 and 5.0 mcg, respectively. Patient is begun on malonic acid compound at a dose of 120 mg/kg once per day. Patient's asthma improves.

[4] = tested on: disorders of EXAMPLES I-XXIV; conditions: Examples I-XXIV repeated; peptide 10-100 mg orally once-, twice- or three times-daily
[5] = biological target: EGLN3 binding to the β2AR (Homo sapiens, UniProt P07550)
[6] = tested on: β2AR
[7] = tested on: cystic fibrosis; assay: Patient case examples: cystic fibrosis; assay type: in vivo, human
Procedure: A person with cystic fibrosis presents with hypoxemia and pulmonary hemorrhage. They are begun on ethyl nitrite 20 parts per million in nitrogen, N-acetylcysteine 50 mg/kg Q 6 hours and ascorbate IV 1 gram Q 6 hours, along with DMOG at a dose of 40 mg/kg three times per day. […] They are discharged on day 7. A person with cystic fibrosis presents with labored breathing and increased sputum production.

[8] = tested on: Chronic Obstructive Pulmonary Disease; assay: Patient case examples: Chronic Obstructive Pulmonary Disease; assay type: in vivo, human
Procedure: Patient started on DMOG at a dose of 50 mg/kg three times per day. Patient improves as evidenced by improved spirometry. A patient having Chronic Obstructive Pulmonary Disease, receiving supplemental oxygen and treated with salbutamol and prednisone is started on DMOG at a dose of 20 mg/kg three times per day.

[9] = tested on: muscle wasting; assay: Patient case examples: lymphoma and muscle wasting, six minute walk test; assay type: in vivo, human
Procedure: A person with lymphoma and muscle wasting. Patient is started on carvedilol at 12.5 BID and isosorbide dinitrate at 10 mg POTID. Patient is started on an intravenous formulation of DMOG at a concentration of […]. Patient's strength improves as evidenced by a six minute walk test.
A person with lymphoma and muscle wasting. Patient is started on alprenolol and isosorbide dinitrate. Patient is started on an intravenous formulation of DMOG at a concentration of 20.0 mg/mL. Patient's strength improves as evidenced by a six minute walk test.

[10] = tested on: unstable angina; assay: Patient case examples: unstable angina with nitroglycerin tolerance; assay type: in vivo, human; conditions: IV nitroglycerin tolerance over 48 hours
Procedure: A person with unstable angina on IV nitroglycerin develops tolerance over 48 hours as evidenced by recurrent chest pains despite increasing doses of drug.
A person with unstable angina on IV nitroglycerin develops tolerance over 48 hours as evidenced by recurrent chest pains despite increasing doses of drug. […] The patient improves.

[11] = tested on: sickle cell disease; assay: Patient case example: sickle cell disease crisis; assay type: in vivo, human; conditions: Example XX; two units of blood, 80 ppm inhaled ethyl nitrite and 100 mg/kg DMOG
Procedure: A person with homozygous sickle cell disease presents in crisis. The patient complains of severe abdominal and chest pain and is somewhat disoriented. They receive two units of blood while being administered 80 ppm inhaled ethyl nitrite and 100 mg/kg of DMOG.

[12] = tested on: pulmonary edema; assay: Patient case examples: pulmonary edema; assay type: in vivo, human; conditions: over the day
Procedure: A person presents complaining of shortness of breath. […] An intravenous line is inserted and the patient is started on IV infusion of […] per kilogram per minute nitroglycerin. They are also given an intravenous formulation of DMOG at a concentration of 10.0 mg/ml. Their symptoms improve over the day, during which time their arteriolar PO2 increases from 70 to 85 mm Hg.
A person presents complaining of shortness of breath. […] The patient is started on intravenous nitroglycerin at 25 μg per minute and DMOG at a dose of 25 mg/kg three times per day. Their symptoms improve over the day, during which time their arteriolar PO2 increases from 60 to 85 mm Hg.

[13] = tested on: impaired sense of smell; assay: Patient case example: impaired sense of smell; assay type: in vivo, human; conditions: Example XXIII; after steroidal nasal spray; DMOG nasal spray 1 mg/ml
Procedure: DMOG is administered via nasal spray in amount 1 mg/ml. Patient sense of smell improves.

Compound: COCCc1ccc(OCC(O)CNC(C)C)cc1 (stereo not drawn) [metoprolol]
- Hypertension response ([1]; Example XIII, metoprolol before DMOG, blood pressure 180/95): without improvement

Compound: N[C@@H](CCC(=O)N[C@@H](CSN=O)C(=O)NCC(=O)O)C(=O)O [S-nitrosoglutathione]
- Dyspnea and angina ([2]; Example XVII, short of breath despite nitroglycerin, S-nitrosoglutathione 0.1 μg/kg/min): improvement of dyspnea and relief of angina

Compound: COc1ccccc1OCCNCC(O)COc1cccc2[nH]c3ccccc3c12 (stereo not drawn) [carvedilol]
- Ejection fraction response ([2]; Example V, carvedilol before DMOG): without ejection fraction improving
- Ejection fraction response ([2]; Example VI, carvedilol 50 mg BID before DMOG): without ejection fraction improving
- Ejection fraction response ([2]; Example VII, carvedilol 25 mg divided BID before DMOG): without ejection fraction improving

Compound: O=C(O)CC(=O)O [malonic acid compound, malonic acid]
- Patient's asthma ([3]; Example XXIV, on budesonide/formoterol 150.0/5.0 mcg, malonic acid compound 120 mg/kg once per day): improves

Compound: EAISFLLSLIDRLVLY
- Patient outcome in each EXAMPLE [4]: exhibits improvement
- Binding of EGLN3 to the β2AR [5]: inhibits binding
- Receptor expression in cells [6]: increases receptor expression

Compound: N=O [HNO]
- Symptomatic status ([7]; Example XIX, HNO 10 ppm in nitrogen): improvements in their symptomatic status

Compound: CC(C)(C)NCC(O)c1ccc(O)c(CO)c1 (stereo not drawn) [albuterol]
- Patient outcome, COPD ([8]; Example XV, albuterol before DMOG): no improvement

Compound: COC(=O)CNC(=O)C(=O)OC [DMOG, dimethyloxalylglycine]
- Patient's asthma ([3]; Example I, person not improving on 250 ug beclomethasone + albuterol inhaler, DMOG 20 mg/kg three times per day): improves
- Patient's asthma ([3]; Example II, person on budesonide/formoterol 160/4.5 mcg, DMOG 100 mg/kg once per day): improves
- Patient's asthma ([3]; Example III, person on fluticasone and salmeterol, DMOG 30 mg/kg twice per day): improves
- Patient's asthma ([3]; Example IV, person not improving on albuterol, DMOG 25 mg/kg three times per day): improves
- Ejection fraction ([2]; Example V, on carvedilol, nitroglycerin patch 2 inches twice a day + DMOG 100 mg/kg once per day): 40%
- Ejection fraction ([2]; Example VI, on carvedilol 50 mg BID, nitroglycerin patch 2 inches twice a day + DMOG 25 mg/kg three times per day): 42%
- Ejection fraction ([2]; Example VII, on carvedilol 25 mg divided BID, intravenous nitroglycerin 20 μg per minute + DMOG 50 mg/kg three times per day): 42%
- Patient's strength, six minute walk test ([9]; Example IX, on alprenolol and isosorbide dinitrate, intravenous DMOG formulation 20.0 mg/mL): improves
- Patient's strength, six minute walk test ([9]; Example VIII, on carvedilol 12.5 BID and isosorbide dinitrate 10 mg, intravenous DMOG formulation 25.0 mg/m): improves
- Blood pressure ([1]; Example X, propranolol, DMOG 30 mg/kg twice per day): 160/90
- Hypertension response ([1]; Example XI, person after nitropaste, DMOG 30 mg/kg twice per day): improves
- Blood pressure ([1]; Example XIII, metoprolol, DMOG 30 mg/kg twice per day): 160/90
- Response to nitroglycerin after tolerance ([10]; Example XII, intravenous DMOG formulation 15.0 mg/mL): responds to nitroglycerin
- Patient outcome, unstable angina ([10]; Example XIV, intravenous DMOG formulation 10.0 mg/ml): improves
- Patient outcome, spirometry ([8]; Example XV, after albuterol, DMOG 50 mg/kg three times per day): improves
- Need for supplemental oxygen ([8]; Example XVI, on supplemental oxygen, salbutamol and prednisone, DMOG 20 mg/kg three times per day): no longer requires supplemental oxygen
- Sputum production ([7]; Example XIX, after HNO 10 ppm, DMOG 20 mg/kg three times per day, over two days): decreases in sputum production
- Pulmonary hemorrhage and state of health ([7]; Example XVIII, ethyl nitrite 20 ppm, N-acetylcysteine 50 mg/kg Q 6 hours, ascorbate IV 1 gram Q 6 hours + DMOG 40 mg/kg three times per day, over three days): the hemorrhage stops and the patient reverts to normal state of health
- Symptoms of sickle cell crisis [11]: All symptoms resolve
- Symptoms of pulmonary edema ([12]; Example XXI, IV nitroglycerin 0.1 mg per kilogram per minute + intravenous DMOG formulation 10.0 mg/ml): improve
- Arteriolar PO2 ([12]; Example XXI, from 70, IV nitroglycerin 0.1 mg per kilogram per minute + intravenous DMOG formulation 10.0 mg/ml): 85 mm Hg
- Arteriolar PO2 ([12]; Example XXII, from 60, intravenous nitroglycerin 25 μg per minute + DMOG 25 mg/kg three times per day): 85 mm Hg
- Symptoms of pulmonary edema ([12]; Example XXII, intravenous nitroglycerin 25 μg per minute + DMOG 25 mg/kg three times per day): improve
- Sense of smell [13]: improves

Compound: CC(C)NCC(O)COc1cccc2ccccc12 (stereo not drawn) [propranolol]
- Hypertension response ([1]; Example X, propranolol before DMOG, blood pressure 180/95): without improvement
